For 31 molecules, melting point results are on record in patent publication US8119687B2, “Derivatives of dioxan-2-alkyl carbamates, preparation thereof and application thereof in therapeutics” (Sanofi-Aventis, priority 2002, dated 2012).

Take `NC(=O)COC(=O)NCCC[C@H]1OC[C@H](c2cccc3cc(OCC4CC4)ccc32)CO1` [compound 66, 2-amino-2-oxoethyl trans-3-[5-(6-cyclopropylmethoxy-naphthalen-1-yl)-1,3-dioxan-2-yl]propylcarbamate]: the melting point was 137 to 139 °C.

As to `CNC(=O)COC(=O)NCCC[C@H]1OC[C@H](c2ccc3ccccc3c2)CO1` [compound 77, 2-(methylamino)-2-oxoethyl trans-3-[5-(naphthalen-2-yl)-1,3-dioxan-2-yl]propylcarbamate], the melting point is 144 to 146 °C.

As to `O=C(NCC[C@H]1OC[C@H](c2cccc3ccccc32)CO1)Oc1ccccc1`, the melting point is 131 to 133 °C.

Consider `CNC(=O)COC(=O)NCCC[C@H]1OC[C@H](c2cccc3cc(O)ccc32)CO1` [compound 71, 2-(methylamino)-2-oxoethyl trans-3-[5-(6-hydroxy-naphthalen-1-yl)-1,3-dioxan-2-yl]propylcarbamate], for which the melting point fell in the range of 140 to 148 °C.

Take `COc1ccc2c(cccc2[C@H]2CO[C@H](CCCNC(=O)Oc3ccccc3)OC2)c1`: the melting point amounted to 128 °C.

`O=C(NCCC[C@H]1OC[C@H](c2cccc3ccccc32)CO1)Oc1ccccc1`: the melting point was 125 to 127 °C.

Molecule `COc1ccc2cccc([C@H]3CO[C@H](CCCNC(=O)OCC(F)(F)F)OC3)c2c1` [compound 74, 2,2,2-trifluoroethyl trans-3-[5-(7-methoxynaphthalen-1-yl)-1,3-dioxan-2-yl]propylcarbamate] had a melting point of 93 to 96 °C.

`O=C(NCCC[C@H]1OC[C@H](c2ccc3ccccc3c2)CO1)OCC(F)(F)F` [compound 78, 2,2,2-trifluoroethyl trans-3-[5-(naphthalen-2-yl)-1,3-dioxan-2-yl]propylcarbamate]: the melting point lay in the range of 130 to 132 °C.

On to `O=C(NCCC[C@H]1OC[C@H](c2ccc3ccccc3c2)CO1)Oc1ccccc1`, for which the melting point fell in the range of 130 to 131 °C.

On to `COc1ccc2cccc([C@H]3CO[C@H](CCCNC(=O)OCC(N)=O)OC3)c2c1` [compound 72, 2-amino-2-oxoethyl trans-3-[5-(7-methoxynaphthalen-1-yl)-1,3-dioxan-2-yl]propylcarbamate], for which the melting point is 156 to 158 °C.

In turn, `CNC(=O)COC(=O)NCCC[C@H]1OC[C@H](c2cccc3ccccc32)CO1` [compound 40, 2-(methylamino)-2-oxoethyl trans-3-[5-(naphthalen-1-yl)-1,3-dioxan-2-yl]propylcarbamate] had a melting point of 154 °C.

`NC(=O)COC(=O)NCCC[C@H]1OC[C@H](c2cccc3ccccc32)CO1` [compound 38, 2-amino-2-oxoethyl trans-3-[5-(naphthalen-1-yl)-1,3-dioxan-2-yl]propylcarbamate] yielded a melting point of 112 to 114 °C.

`CNC(=O)COC(=O)NCCC[C@H]1OC[C@H](c2cccc3cc(Cl)ccc32)CO1` [compound 48, 2-(methylamino)-2-oxoethyl trans-3-[5-(6-chloro-naphthalen-1-yl)-1,3-dioxan-2-yl]propylcarbamate]: the melting point lay within 182 to 184 °C.

The molecule `COc1ccc2cccc([C@H]3CO[C@H](CCCNC(=O)Oc4ccccc4)OC3)c2c1` displayed a melting point of 151 to 153 °C.

`NC(=O)COC(=O)NCCC[C@H]1OC[C@H](c2cccc3cc(O)ccc32)CO1` [compound 70, 2-amino-2-oxoethyl trans-3-[5-(6-hydroxynaphthalen-1-yl)-1,3-dioxan-2-yl]propylcarbamate]: the melting point lay in the range of 166 to 170 °C.

With `O=C(NCCC[C@H]1OC[C@H](c2cccc3cc(OCC4CC4)ccc32)CO1)Oc1ccc(Cl)cc1`, the melting point fell in the range of 159 to 162 °C.

As to `O=C(NCCC[C@H]1OC[C@H](c2cccc3cc(OCC4CC4)ccc32)CO1)OCC(F)(F)F` [Compound No. 68, 2,2,2-Trifluoroethyl trans-3-[5-(6-cyclopropylmethoxy-naphthalen-1-yl)-1,3-dioxan-2-yl]propylcarbamate], the melting point was in the range of 105 to 107 °C.

Molecule `CCNC(=O)COC(=O)NCCC[C@H]1OC[C@H](c2cccc3cc(OC)ccc32)CO1` [compound 58, 2-(ethylamino)-2-oxoethyl trans-3-[5-(6-methoxy-naphthalen-1-yl)-1,3-dioxan-2-yl]propylcarbamate] had a melting point of 170 to 172 °C.

In turn, `CNC(=O)COC(=O)NCC[C@H]1OC[C@H](c2cccc3cc(OC)ccc32)CO1` [compound 54, 2-(methylamino)-2-oxoethyl trans-2-[5-(6-methoxy-naphthalen-1-yl)-1,3-dioxan-2-yl]ethylcarbamate] displayed a melting point of 136 to 138 °C.

`CNC(=O)COC(=O)NCCC[C@H]1OC[C@H](c2ccc(Cl)c3ccccc32)CO1` [compound 47, 2-(methylamino)-2-oxoethyl trans-3-[5-(4-chloro-naphthalen-1-yl)-1,3-dioxan-2-yl]propylcarbamate] gave a melting point of 190 to 192 °C.

Take `COc1ccc2c(cccc2[C@H]2CO[C@H](CCNC(=O)Oc3ccc(Cl)cc3)OC2)c1`: the melting point fell in the range of 129 to 131 °C.

`NC(=O)COC(=O)NCCC[C@H]1OC[C@H](c2ccc(Cl)c3ccccc32)CO1` [Compound No. 46, 2-Amino-2-oxoethyl trans-3-[5-(4-chloronaphthalen-1-yl)-1,3-dioxan-2-yl]propylcarbamate] registered a melting point of 176 to 178 °C.

For the molecule `COc1ccc2c(cccc2[C@H]2CO[C@H](CCCNC(=O)OCC(F)(F)F)OC2)c1` [compound 62, 2,2,2-trifluoroethyl trans-3-[5-(6-methoxynaphthalen-1-yl)-1,3-dioxan-2-yl]propylcarbamate], the melting point was found to be 111 °C.

`COc1ccc2c(cccc2[C@H]2CO[C@H](CCCNC(=O)OCC(=O)NCc3ccncc3)OC2)c1` [compound 60, 2-[(pyridin-4-yl)methylamino]-2-oxoethyl trans-3-[5-(6-methoxynaphthalen-1-yl)-1,3-dioxan-2-yl]propylcarbamate] returned a melting point of 152 °C.

`O=C(NCCC[C@H]1OC[C@H](c2cccc3ccccc32)CO1)OCC(F)(F)F` [compound 42, 2,2,2-trifluoroethyl trans-3-[5-(naphthalen-1-yl)-1,3-dioxan-2-yl]propylcarbamate] displayed a melting point of 89 to 92 °C.

The molecule `CNC(=O)COC(=O)NCC[C@H]1OC[C@H](c2cccc3ccccc32)CO1` [compound 39, 2-(methylamino)-2-oxoethyl trans-2-[5-(naphthalen-1-yl)-1,3-dioxan-2-yl]ethylcarbamate] displayed a melting point of 86 to 88 °C.

With `COc1ccc2c(cccc2[C@H]2CO[C@H](CCNC(=O)OCC(F)(F)F)OC2)c1` [compound 56, 2,2,2-trifluoroethyl trans-2-[5-(6-methoxynaphthalen-1-yl)-1,3-dioxan-2-yl]ethylcarbamate], the melting point is 93 to 95 °C.

The molecule `CNC(=O)COC(=O)NCCC[C@H]1OC[C@H](c2cccc3ccc(OC)cc32)CO1` [compound 73, 2-(methylamino)-2-oxoethyl trans-3-[5-(7-methoxy-naphthalen-1-yl)-1,3-dioxan-2-yl]propylcarbamate] registered a melting point of 144 to 146 °C.

Molecule `CNC(=O)COC(=O)NCCC[C@H]1OC[C@H](c2cccc3cc(OC)ccc32)CO1` [compound 57, 2-(methylamino)-2-oxoethyl trans-3-[5-(6-methoxy-naphthalen-1-yl)-1,3-dioxan-2-yl]propylcarbamate] displayed a melting point of 128 to 130 °C.

In the case of `COc1ccc2c(cccc2[C@H]2CO[C@H](CCCNC(=O)OCC(=O)NC3CC3)OC2)c1` [Compound No. 61, 2-(Cyclopropylamino)-2-oxoethyl trans-3-[5-(6-methoxy-naphthalen-1-yl)-1,3-dioxan-2-yl]propylcarbamate], the melting point was determined as 176 °C.

In the case of `O=C(NCC[C@H]1OC[C@H](c2cccc3ccccc32)CO1)OCC(F)(F)F` [compound 41, 2,2,2-trifluoroethyl trans-2-[5-(naphthalen-1-yl)-1,3-dioxan-2-yl]ethylcarbamate], the melting point fell in the range of 111 to 113 °C.
